Results: patent publication US11427548B2 (Arvinas Operations, Inc., priority 2015, dated 2022)

Biological target: T1, Androgen Receptor (Homo sapiens, UniProt P10275)
T1 construct: endogenous in cells; host or cells: VCaP cells
T1 sequence (P10275 1-920): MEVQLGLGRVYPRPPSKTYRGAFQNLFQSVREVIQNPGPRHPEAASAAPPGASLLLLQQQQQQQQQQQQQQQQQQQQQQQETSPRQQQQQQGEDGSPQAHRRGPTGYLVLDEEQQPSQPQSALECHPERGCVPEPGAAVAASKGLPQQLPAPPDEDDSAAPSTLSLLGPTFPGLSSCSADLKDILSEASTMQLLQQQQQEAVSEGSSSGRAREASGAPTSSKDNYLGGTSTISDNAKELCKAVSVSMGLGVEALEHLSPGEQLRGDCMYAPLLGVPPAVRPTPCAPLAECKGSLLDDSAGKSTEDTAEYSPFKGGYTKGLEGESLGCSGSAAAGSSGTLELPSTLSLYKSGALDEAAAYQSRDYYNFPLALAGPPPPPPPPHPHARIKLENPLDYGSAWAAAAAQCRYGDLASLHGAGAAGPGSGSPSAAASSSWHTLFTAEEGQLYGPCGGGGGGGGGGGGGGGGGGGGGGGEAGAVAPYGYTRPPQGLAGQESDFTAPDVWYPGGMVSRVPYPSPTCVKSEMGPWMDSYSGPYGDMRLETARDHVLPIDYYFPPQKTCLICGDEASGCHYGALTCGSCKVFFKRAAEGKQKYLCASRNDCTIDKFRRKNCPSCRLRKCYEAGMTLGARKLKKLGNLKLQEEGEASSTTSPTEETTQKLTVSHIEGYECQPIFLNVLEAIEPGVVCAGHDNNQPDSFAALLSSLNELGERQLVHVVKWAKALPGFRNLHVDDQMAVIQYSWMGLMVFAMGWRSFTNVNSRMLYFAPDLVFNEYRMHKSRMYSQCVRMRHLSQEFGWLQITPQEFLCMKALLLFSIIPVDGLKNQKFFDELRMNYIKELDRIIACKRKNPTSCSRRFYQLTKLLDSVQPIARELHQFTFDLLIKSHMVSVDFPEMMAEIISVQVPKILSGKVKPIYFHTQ
Assay: Androgen Receptor ELISA assay (PathScan AR ELISA) in VCaP cells: AR degradation, Dmax and DC50
Type: cell-based
Details: VCaP cells (Table 32); for Dmax: VCaP, highest percentage of Androgen Receptor degradation observed, read-out: VCaP Dmax (%); for DC50: concentration that caused 50% Androgen Receptor degradation, read-out: VCaP DC50
In short: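 VCaP cells in phenol red-free RPMI with 5% charcoal-stripped FBS were grown at least 3 days, then given compound as 7 half-log doses in 0.1% DMSO with 0.1 nM R1881 for 24 h. Lysates went into a sandwich AR ELISA with TMB read at 450 nm.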

Structure (SMILES)	Dmax	DC50
Cc1ncoc1-c1ccc(CNC(=O)[C@@H]2C[C@@H](O)CN2C(=O)[C@@H](NC(=O)COCCCCCNc2ccc(C(=O)N[C@H]3C(C)(C)[C@H](Oc4ccc(C#N)c(Cl)c4)C3(C)C)cc2)C(C)(C)C)cc1 [Example 173, (2S,4R)-1-[(2S)-3,3-dimethyl-2-[2-({5-[(4-{[trans-3-(3-chloro-4-cyanophenoxy)-2,2,4,4-tetramethylcyclobutyl]carbamoyl}phenyl)amino]pentyl}oxy)acetamido]butanoyl]-4-hydroxy-N-{[4-(4-methyl-1,3-oxazol-5-yl)phenyl]methyl}pyrrolidine-2-carboxamide]	> 71%	< 50 nM
Cc1ncsc1-c1ccc(CNC(=O)[C@@H]2C[C@@H](O)CN2C(=O)[C@@H](NC(=O)COCCCCNc2ccc(C(=O)N[C@H]3C(C)(C)[C@H](Oc4ccc(C#N)c(Cl)c4)C3(C)C)cc2)C(C)(C)C)cc1 [Example 175, (2S,4R)-1-[(2S)-3,3-dimethyl-2-(2-{4-[(4-{[trans-3-(3-chloro-4-cyanophenoxy)-2,2,4,4-tetramethylcyclobutyl]carbamoyl}phenyl)amino]butoxy}acetamido)butanoyl]-4-hydroxy-N-{[4-(4-methyl-1,3-thiazol-5-yl)phenyl]methyl}pyrrolidine-2-carboxamide]	51 to 70%	< 50 nM
Cc1ncsc1-c1ccc(CNC(=O)[C@@H]2C[C@@H](O)CN2C(=O)[C@@H](NC(=O)COCCCCCNc2ccc(C(=O)N[C@H]3C(C)(C)[C@H](Oc4ccc(C#N)c(Cl)c4)C3(C)C)cc2F)C(C)(C)C)cc1 [Example 176, (2S,4R)-1-[(2S)-2-[2-({5-[(2-fluoro-4-{[trans-3-(3-chloro-4-cyanophenoxy)-2,2,4,4-tetramethylcyclobutyl]carbamoyl}phenyl)amino]pentyl}oxy)acetamido]-3,3-dimethylbutanoyl]-4-hydroxy-N-{[4-(4-methyl-1,3-thiazol-5-yl)phenyl]methyl} pyrrolidine-2-carboxamide]	> 71%	< 50 nM
Cc1ncsc1-c1ccc([C@H](C)NC(=O)[C@@H]2C[C@@H](O)CN2C(=O)[C@@H](NC(=O)COCCCCNc2ccc(C(=O)N[C@H]3C(C)(C)[C@H](Oc4ccc(C#N)c(Cl)c4)C3(C)C)cc2)C(C)(C)C)cc1 [Example 177, (2S,4R)-1-[(2S)-3,3-dimethyl-2-(2-{4-[(4-{[trans-3-(3-chloro-4-cyanophenoxy)-2,2,4,4-tetramethylcyclobutyl]carbamoyl}phenyl)amino]butoxy}acetamido)butanoyl]-4-hydroxy-N-[(1S)-1-[4-(4-methyl-1,3-thiazol-5-yl)phenyl]ethyl]pyrrolidine-2-carboxamide]	> 71%	< 50 nM
Cc1ncsc1-c1ccc([C@@H](C)NC(=O)[C@@H]2C[C@@H](O)CN2C(=O)[C@@H](NC(=O)COCCCCNc2ccc(C(=O)N[C@H]3C(C)(C)[C@H](Oc4ccc(C#N)c(Cl)c4)C3(C)C)cc2)C(C)(C)C)cc1 [Example 178, (2S,4R)-1-[(2S)-3,3-dimethyl-2-(2-{4-[(4-{[trans-3-(3-chloro-4-cyanophenoxy)-2,2,4,4-tetramethylcyclobutyl]carbamoyl}phenyl)amino]butoxy}acetamido)butanoyl]-4-hydroxy-N-[(1R)-1-[4-(4-methyl-1,3-thiazol-5-yl)phenyl]ethyl]pyrrolidine-2-carboxamide]	26 to 50%	< 50 nM
Cc1ncoc1-c1ccc(CNC(=O)[C@@H]2C[C@@H](O)CN2C(=O)[C@@H](NC(=O)CCCOc2ccc(-c3ccc(C(=O)N[C@H]4C(C)(C)[C@H](Oc5ccc(C#N)c(Cl)c5)C4(C)C)cc3)cc2)C(C)(C)C)cc1 [Example 180]	> 71%	< 50 nM
Cc1ncoc1-c1ccc(CNC(=O)[C@@H]2C[C@@H](O)CN2C(=O)[C@@H](NC(=O)COCCOc2ccc(-c3ccc(C(=O)N[C@H]4C(C)(C)[C@H](Oc5ccc(C#N)c(Cl)c5)C4(C)C)cc3)cc2)C(C)(C)C)cc1 [Example 181]	> 71%	< 50 nM
Cc1ncoc1-c1ccc(CNC(=O)[C@@H]2C[C@@H](O)CN2C(=O)[C@@H](NC(=O)COCc2ccc(Oc3ccc(C(=O)N[C@H]4C(C)(C)[C@H](Oc5ccc(C#N)c(Cl)c5)C4(C)C)cc3)cc2)C(C)(C)C)cc1 [Example 184, (2S,4R)-1-[(2S)-3,3-dimethyl-2-(2-{[4-(4-{[(1r,3r)-3-(3-chloro-4-cyanophenoxy)-2,2,4,4-tetramethylcyclobutyl]carbamoyl}phenoxy)phenyl]methoxy}acetamido)butanoyl]-4-hydroxy-N-{[4-(4-methyl-1,3-oxazol-5-yl)phenyl]methyl}pyrrolidine-2-carboxamide]	> 71%	< 50 nM
Cc1ncsc1-c1ccc(CNC(=O)[C@@H]2C[C@@H](O)CN2C(=O)[C@@H](NC(=O)COCCOc2ccc(Oc3ccc(C(=O)N[C@H]4C(C)(C)[C@H](Oc5ccc(C#N)c(Cl)c5)C4(C)C)cc3)cc2)C(C)(C)C)cc1 [Example 185, (2S,4R)-1-[(2S)-3,3-dimethyl-2-(2-{2-[4-(4-{[trans-3-(3-chloro-4-cyanophenoxy)-2,2,4,4-tetramethylcyclobutyl]carbamoyl}phenoxy)phenoxy]ethoxy}acetamido)butanoyl]-4-hydroxy-N-{[4-(4-methyl-1,3-thiazol-5-yl)phenyl]methyl}pyrrolidine-2-carboxamide]	> 71%	< 50 nM
Cc1ncoc1-c1ccc(CNC(=O)[C@@H]2C[C@@H](O)CN2C(=O)[C@@H](NC(=O)COCCOc2ccc(Oc3ccc(C(=O)N[C@H]4C(C)(C)[C@H](Oc5ccc(C#N)c(Cl)c5)C4(C)C)cc3)cc2)C(C)(C)C)cc1 [Example 186, (2S,4R)-1-[(2S)-3,3-dimethyl-2-(2-{2-[4-(4-{[trans-3-(3-chloro-4-cyanophenoxy)-2,2,4,4-tetramethylcyclobutyl]carbamoyl}phenoxy)phenoxy]ethoxy}acetamido)butanoyl]-4-hydroxy-N-{[4-(4-methyl-1,3-oxazol-5-yl)phenyl]methyl}pyrrolidine-2-carboxamide]	> 71%	< 50 nM
Cc1ncsc1-c1ccc(CNC(=O)[C@@H]2C[C@@H](O)CN2C(=O)[C@@H](NC(=O)CNC(=O)c2ccc(Oc3ccc(C(=O)N[C@H]4C(C)(C)[C@H](Oc5ccc(C#N)c(Cl)c5)C4(C)C)cc3)cc2)C(C)(C)C)cc1 [Example 187, (2S,4R)-1-[(2S)-3,3-dimethyl-2-(2-{[4-(4-{[trans-3-(3-chloro-4-cyanophenoxy)-2,2,4,4-tetramethylcyclobutyl]carbamoyl}phenoxy)phenyl] formamido}acetamido)butanoyl]-4-hydroxy-N-{[4-(4-methyl-1,3-thiazol-5-yl)phenyl]methyl} pyrrolidine-2-carboxamide]	> 71%	< 50 nM
Cc1ncsc1-c1ccc(CNC(=O)[C@@H]2C[C@@H](O)CN2C(=O)[C@@H](NC(=O)CNCCCCCOc2ccc(C(=O)N[C@H]3C(C)(C)[C@H](Oc4ccc(C#N)c(Cl)c4)C3(C)C)cc2)C(C)(C)C)cc1 [Example 188]	> 71%	< 50 nM
